Experiments:
MOLT-4/HTLV-IIIB = experiment: Killing effect on cells persistently infected with HIV (Test Example 1), trypan blue; format: cell-based, human; conditions: for killing effect on HIV-infected cells: summary
Procedure: (§1) The cell killing effects of test substances were determined using a cell strain persistently infected with HIV in MOLT-4 cells and MOLT-4 cells.
(§2) MOLT4/HTLV-IIIB, MOLT4/ARV and MOLT4 cell strains were separately inoculated in proportions of 4×10^4 cells/well (200 μl) on a 96-well plate, and the above test substances in various concentrations were separately added in an amount of 20 μl thereto. After each cell sample was cultured for 3 days at 37° C. in the presence of 5% CO2, the culture was diluted to a triple or quadruple amount, thereby counting the number of living cells by a trypan blue dye exclusion test. As a control, 20 μl of PBS were added in place of each test substance. Each numerical value is expressed in terms of the percentage of living cells to the control.

HTLV-IIIB in MT-4 cells = experiment: Anti-HIV effect: TCID50 of infectious virus from infected MT-4 cells (Test Example 5); format: cell-based, HIV (HTLV-IIIB); conditions: for proliferation inhibiting effect on HIV: summary; for TCID50 (quantity of infectious virus): 4 days, positive control 3.31 × 10^7
Procedure: The inhibitory effects of test substances on the cytopathy and HIV antigen production of MT-4 cells due to HIV infection were determined.
MT-4 cells belonging to a cell strain persistently infected with HTLV-1 are high in sensitivity to HIV and promptly die out when infected. MT-4/HIV cells which are MT-4 cells infected with HIV are used for screening anti-HIV agents making good use of this nature.
After MT-4 cells (1.2×10^7 cells) were infected for 2 hours at 37° C. with 3.2 ml of HTLV-IIIB (10^7 TCID50 /ml) obtained from a culture supernatant of a cell strain persistently infected with HIV, i.e., […], the cells were washed. After the cells were then inoculated on a 48-well microplate in a proportion of 1×10^5 cells/well, the test substances were separately added in an amount of 100 μl. As a negative control, there was used a culture obtained by adding 3.2 ml of a culture supernatant after culturing MOLT-4 cells for 3 days to MT-4 cells (4.7×10^6 cells), conducting culture for 2 hours at 37° C., washing the cells in the same manner as described above, inoculating them in a proportion of 1×10^5 cells/well and adding PBS in place of the test substances.
Upon elapsed time of 4 days after the culture, each supernatant was assayed on a P24gag protein based on an EIA kit produced by Abbott Labs, and the number of living cells was counted by the Trypan Blue dye exclusion method, and moreover, TCID50 indicative of an actual quantity of infectious virus was calculated.

MT-4/LAV-infected system = conditions: cited from earlier work
MOLT-4/ARV = experiment: Killing effect on cells persistently infected with HIV (Test Example 1), trypan blue; format: cell-based, human; conditions: 3 days
Procedure: as §1, §2

MOLT-4 = experiment: Killing effect on uninfected cells (Test Example 1), trypan blue; format: cell-based, human; conditions: 3 days
Procedure: as §1, §2

[1] = tested on: Molt-4/C18 cells infected with Molt-4/HTLV-IIIB culture supernatant; experiment: Inhibiting effect on cytopathy, MTT assay (Test Example 8 (2)); format: cell-based; conditions: Homo sapiens, MOLT-4, 96 h, read-out: Number of living cells
Procedure: (2) The inhibiting effects of test substances on the formation of multinucleated giant cells and on cytopathy in a Molt-4/C18 cell-infected system were investigated.
Molt-4/C18 cells in a logarithmic growth phase were inoculated in a proportion of 2×10^4 cells/well (20 μl) on a 96-well flat-bottom plate, and 30 μl of a culture supernatant of Molt-4/HTLV-IIIB cells were added. Then, solutions of the test substances in various concentrations were separately added in an amount of 50 μl, followed by their culture at 37° C. under conditions of 5% CO2. To wells for a positive control, 50 μl of a culture medium were added in place of the solution of each test substance, while to wells for a negative control, 30 μl of the culture medium were added instead of the culture supernatant. Defining the day the culture was started as Day 0, the culture was continuously conducted for 4 days to observe a state of formation of multinucleated giant cells and to count the number of living cells by the MTT assay.

[2] = in vivo; cited from earlier work
[3] = tested on: cells persistently infected with HIV; conditions: cited from earlier work
[4] = Homo sapiens, MOLT-4, 72 h, 1 μM, read-out: living cells (percentage to the control)

C=CC1=C(C)c2cc3[nH]c(cc4nc(cc5[nH]c(cc1n2)c(C)c5CCC(=O)O)C(CCC(=O)O)=C4C)c(C)c3C=C [protoporphyrin]
killing effect on HIV-infected cells (MOLT-4/HTLV-IIIB): no killing effect on HIV-infected cells
proliferation inhibiting effect on HIV (HTLV-IIIB in MT-4 cells): have a proliferation inhibiting effect on HIV
anti-HIV activity (MT-4/LAV-infected system): exhibits an anti-HIV activity

C=CC1=C(C)c2cc3[n-]c(cc4[n-]c(cc5nc(cc1n2)C(C)=C5C=C)c(C)c4CCC(=O)O)c(CCC(=O)O)c3C.[Cl-].[Fe+3] [Hemin]
living cells (percentage to the control) (MOLT-4/ARV; 10 μM): 94%
living cells (percentage to the control) (MOLT-4/ARV; 40 μM): 93%
living cells (percentage to the control) (MOLT-4/HTLV-IIIB; 10 μM, 3 days): 100%
living cells (percentage to the control) (MOLT-4/HTLV-IIIB; 40 μM, 3 days): 90%
killing effect on HIV-infected cells (MOLT-4/HTLV-IIIB): no killing effect on HIV-infected cells
living cells (percentage to the control) (MOLT-4; 10 μM): 98%
living cells (percentage to the control) (MOLT-4; 40 μM): 99%
TCID50 (quantity of infectious virus) (HTLV-IIIB in MT-4 cells; 10 μM): 1.52 × 10^7 TCID50 /ml
proliferation inhibiting effect on HIV (HTLV-IIIB in MT-4 cells): have a proliferation inhibiting effect on HIV

Cc1cn([C@H]2C[C@H](N=[N+]=[N-])[C@@H](CO)O2)c(=O)[nH]c1=O [AZT, 3'-azido-3'-deoxythymidine]
viability at 1 µM (MOLT-4/ARV; [4]): 82%
viability at 1 µM (MOLT-4/HTLV-IIIB; Homo sapiens, MOLT-4, 72 h, 1 μM, 3 days, read-out: living cells (percentage to the control)): 71%
viability at 1 µM (MOLT-4; [4]): 55%
TCID50 (quantity of infectious virus) (HTLV-IIIB in MT-4 cells; 1 μM): 5.94 × 10^4 TCID50 /ml
viability at 25 µM ([1]; 25 (μM), 4 days, positive control 27): 84%
viability at 0.004 µM [1]: 42%
viability at 0.02 µM [1]: 69%
viability at 0.1 µM [1]: 79%
viability at 0.5 µM [1]: 84%
side effects [2]: a myelodepresant effect is remarkably observed as a side effect in addition to headache and gastrointestinal disorders
effect on cells already infected with HIV [3]: no effect on cells already infected with HIV
